Source: PubChem BioAssay AID1996
Values after ≈ are worked out from the molar mass of the structure shown.

Settings: buffer; pH 7.4; 200.0 µM

| solubility kinetic [µg/mL] | SMILES |
| --- | --- |
| > 42.1 | CCN(CC)C1CC(=O)N(c2cccc(Cl)c2)C1=O (stereo not given) |
| > 24.3 | Cc1cc(C)n(C)c(=O)c1C#N |
| 8.1 (≈ 21.8 µM) | O=C(COC(=O)CCC(=O)c1cccs1)Nc1ccc(F)c(F)c1F |
| 10.7 (≈ 35.5 µM) | CC(=O)Nc1c(-c2ccc3ccccc3c2)nc2ccccn12 |
| 15.5 (≈ 55.7 µM) | Cc1cc(C(=O)OCC(=O)NC2CC2)ccc1[N+](=O)[O-] |
| 48.1 (≈ 143 µM) | CCOc1ccccc1N(C)C(=O)c1cn(C)c(=O)c2ccccc12 |
| > 50.8 | CCN(CC(=O)N1CCCCCC1)S(=O)(=O)c1ccc(C)cc1 |
| 6.2 (≈ 17.1 µM) | CCCC(NC(=O)c1ccc(Br)o1)c1nc2ccccc2[nH]1 (stereo not given) |
| > 49.7 | O=C(Nc1cccnc1)c1cccc(S(=O)(=O)N2CCCC2)c1 |
| 1 (≈ 3.05 µM) | Cc1cccc(-c2nc(Nc3cccc(O)c3)c3ccccc3n2)c1 |
| 1.1 (≈ 4.23 µM) | COC(=O)c1ccccc1NC(=O)c1cc(C)no1 |
| > 43.2 | CCOC(=O)C(=CNc1ccc(C#N)cc1)C(=O)OCC |
| 7.1 (≈ 20.1 µM) | O=C(NCc1nc(-c2ccc(C(F)(F)F)cc2)no1)c1cccs1 |
| 34.8 (≈ 138 µM) | O=[N+]([O-])c1cc(-c2ncccn2)c([N+](=O)[O-])s1 |
| < 0.3 | CC1(C)CC2(CCO1)C(Nc1ccccc1)=NC(=S)N2c1ccccc1 (stereo not given) |
| 4.5 (≈ 15.5 µM) | O=C(Cc1ccc([N+](=O)[O-])cc1)Nc1ccc(Cl)cc1 |
| 3.6 (≈ 9.99 µM) | Cc1ccc(NC(=O)c2ccc(S(=O)(=O)N3CCOCC3)cc2)cc1 |
| > 47.6 | CC(C)CNC(=O)C1CCCN(C(=O)NCc2ccccc2)C1 (stereo not given) |
| > 35.1 | COc1ccc(NC(=O)c2cccs2)cn1 |
| > 44.7 | CN(C)CCN(Cc1cccs1)c1ccccn1.Cl |
| > 48.7 | CN1CCN(C=Nc2nc3ccccc3nc2N2CCCC2)CC1 |
| > 37.4 | Cc1cc(C)cc(C(N)=Nc2cccc(C#N)c2)c1 |
| > 45.2 | Cn1cccc1C(=O)NCC(c1ccco1)N1CCCCC1 (stereo not given) |
| 35.8 (≈ 122 µM) | CC(NC(=O)c1ccc(Br)o1)c1ccccc1 (stereo not given) |

| solubility kinetic [µg/mL] | SMILES |
| --- | --- |
| > 43.6 | COc1ccccc1C(=O)NC1CC(C)(C)NC(C)(C)C1 |
| > 43.3 | COc1ccc(CCNc2cc(C)nc(N)n2)cc1OC |
| > 50 | Cc1nc(NC(=O)CCN2C(=O)C3CC=CCC3C2=O)sc1C (stereo not given) |
| 1.6 (≈ 5.1 µM) | COc1ccc(CNC(=O)CC23CC4CC(CC(C4)C2)C3)cc1 |
| > 36.2 | O=C1Nc2ccccc2C1(O)c1ccccc1O (stereo not given) |
| 42.4 (≈ 145 µM) | Cn1ccnc1SCC(=O)Nc1cccc([N+](=O)[O-])c1 |
| > 26.1 | Cc1ccn2c(=O)cc(C)nc2c1 |
| > 46.4 | OCCOCCN1CCN(C(=S)Nc2ccccc2)CC1 |
| 11.5 (≈ 42.7 µM) | O=C(c1cccs1)N1CC=C(c2ccccc2)CC1 |
| 23.7 (≈ 74.8 µM) | O=C(c1ccc(Cl)c([N+](=O)[O-])c1)N1CCCc2ccccc21 |
| > 26 | CC(=O)CC(C)(C)NC(C)=S |
| 2 (≈ 6.15 µM) | Cc1cc(=O)[nH]c(/N=C(\N)Nc2ccc(SC(F)F)cc2)n1 |
| > 39 | Cc1ccccc1NC(=O)c1c([N+](=O)[O-])cnn1C |
| 23.2 (≈ 79.8 µM) | S=C(NCc1ccccc1)NCc1cccc(Cl)c1 |
| 2.8 (≈ 8.68 µM) | O=C(Nc1cccc(C(=O)NC2CCCCC2)c1)c1ccccc1 |
| > 52.1 | COc1ccc(NC(=O)CN(C)CC(=O)NCC2CCCCC2)cc1 |
| > 42.9 | Cc1cc(=O)oc(C)c1C(=O)Nc1ccc(N(C)C)cc1 |
| > 46.7 | COc1cccc(C2=NOC(C(=O)NCc3cccnc3)C2)c1 (stereo not given) |
| > 44 | Cc1ccc(Cn2cc(CCC(=O)O)c3ccccc32)cc1 |
| 1 (≈ 2.83 µM) | CCOc1ccc(-c2nc(N)ncc2Oc2ccc(OC)cc2)c(O)c1 |
| 6.7 (≈ 21.4 µM) | Cc1cc(NC(=O)c2ccc(-c3ccccc3[N+](=O)[O-])o2)no1 |
| > 49.4 | Cc1cc(CNC(=S)Nc2cccc(Cl)c2Cl)nn1C |
| 0.9 (≈ 2.84 µM) | Cc1ccc(NC(=O)Cn2c(=O)oc3ccccc32)cc1Cl |
| > 44.1 | CCCCCCCN1C2=NCCN2c2ccccc21.Cl |

| solubility kinetic [µg/mL] | SMILES |
| --- | --- |
| 2 (≈ 6.05 µM) | COC(=O)c1ccc2nc(-c3ccc(S(C)(=O)=O)cc3)cn2c1 |
| > 55.9 | CCOc1ccc(CCNC(=O)COC(=O)c2ccncc2)cc1OCC |
| > 60.2 | O=C(O)c1ccccc1-c1ccccc1C(=O)Nc1ccc(OC(F)(F)F)cc1 |
| > 62.6 | O=C(CN1C(=O)C2CC=CCC2C1=O)N1CCN(S(=O)(=O)c2ccccc2)CC1 (stereo not given) |
| < 0.2 | Cc1cccc(NC(=O)Nc2ccc(Cl)c(Cl)c2)n1 |
| > 70.3 | O=C(COC(=O)c1cc(S(=O)(=O)N2CCOCC2)ccc1F)NCCc1ccc(F)cc1 |
| > 52.9 | N#Cc1ccccc1OCC(=O)OCC(=O)NC1CCS(=O)(=O)C1 (stereo not given) |
| 45.5 (≈ 148 µM) | CCOc1ccc(C2NC(=O)NC(C)=C2[N+](=O)[O-])cc1OC (stereo not given) |
| > 53.1 | CN1CCCN(C(=O)CNC(=O)c2ccccc2Br)CC1 |
| 43.5 (≈ 120 µM) | CC(=O)N1Cc2ccccc2CC1C(=O)N1CCN(c2ccccc2)CC1 (stereo not given) |
| < 0.2 | Cc1cc(C)c2c(N)c(C(=O)Nc3ccc([N+](=O)[O-])cc3)sc2n1 |
| > 57.2 | Cc1cc(C(=O)OCC(=O)NCCN2C(=O)CSC2=O)ccc1[N+](=O)[O-] |
| 1.4 (≈ 3.99 µM) | Cn1c(=O)c2sccc2n(Cc2cccc(Br)c2)c1=O |
| > 40.5 | Cc1ccc(-c2c(C)n([O-])c3c([n+]2=O)CCCC3)cc1 |
| > 43.6 | C=CCOc1ccc(CNCc2cccnc2)cc1.Cl |
| 18.3 (≈ 69.5 µM) | Oc1cccc(C=Nc2cccc3ccccc23)c1O |
| 2.7 (≈ 9.4 µM) | Cc1ccc(S(=O)(=O)n2c(N)nc3ccccc32)cc1 |
| > 41.3 | O=C(C1CC1)N1CCN(c2ccc([N+](=O)[O-])cc2)CC1 |
| 1.6 (≈ 5.9 µM) | N#Cc1c(N2CCOCC2)nsc1-c1ccccc1 |
| 35.9 (≈ 143 µM) | COc1ccccc1NC(=S)NC1CCCC1 |
| 7.8 (≈ 25.6 µM) | CCOc1ccc(NC(=O)CNC(=O)c2cccs2)cc1 |
| 15.6 (≈ 47.8 µM) | O=S(=O)(c1cccs1)N1CCN(c2ccccc2F)CC1 |
| 50.2 | Cl.O=C(CNCc1ccccc1)NC1C2CC3CC(C2)CC1C3 (stereo not given) |
| > 49 | CC(c1ccccc1)N1CC(C(=O)Nc2ccc(F)cc2)CC1=O (stereo not given) |

Further lines, the compound ahead of its results:

| SMILES | solubility kinetic [µg/mL] |
| --- | --- |
| Cc1ccc2oc(=O)c(/C=C(\O)c3ccccc3)nc2c1 | 36.8 (≈ 132 µM) |
| Cc1cccc(Cl)c1OCCN1CCCC1.O=C(O)C(=O)O | > 49.5 |
| CC(NC(=O)C(=O)NCc1cccs1)c1ccccc1 (stereo not given) | 2.5 (≈ 8.67 µM) |
| c1ccc(-c2csc(-c3ccncc3)n2)cc1 | 24.8 (≈ 104 µM) |
| Cn1c(SCc2ccccc2F)nc2ccccc2c1=O | < 0.3 |
| CCN(CC)CC(O)CCCCCCCCC(=O)OC.Cl (stereo not given) | > 48.6 |
| COc1ccc(CCC(C)N2CCOCC2)cc1 (stereo not given) | 31.9 (≈ 128 µM) |
| Cc1ccc(-c2nc(NCC3CCCO3)sc2C)cc1 (stereo not given) | 24.2 (≈ 83.9 µM) |
| CC(N)Cc1cn(Cc2ccccc2)c2ccccc12.Cl (stereo not given) | > 45.1 |
| CN(C)CC#CCn1c2ccccc2c2ccccc21.Cl | > 44.8 |
| O=C(CSCc1ccccc1Cl)NCCSc1ccccn1 | 50.4 (≈ 143 µM) |
| O=C(CSc1nnc(-c2ccco2)o1)Nc1ccccc1Cl | > 50.4 |
| CCc1nc2oc3ccccc3c(=O)c2cc1C(=O)OC | 4.2 (≈ 14.8 µM) |
| CCC(Oc1ccccc1OC)C(=O)Nc1ccc2c(c1)n(C)c(=O)n2C (stereo not given) | > 55.4 |
| COC(=O)[C@H](Cc1ccccc1)NC(=O)NCCc1ccc(F)cc1 | > 51.7 |
| O=[N+]([O-])c1ccc(Cl)c(S(=O)(=O)NCCc2ccccn2)c1 | > 51.3 |
| Cc1ccccc1NC(=O)Cc1nnc(N)s1 | > 37.2 |
| COc1ccc(NC(=O)COC(=O)c2ccc([N+](=O)[O-])o2)cc1Cl | 19.2 (≈ 54.1 µM) |
| CCOc1ccccc1NC(=S)N1CCCc2ccccc21 | 10.5 (≈ 33.6 µM) |
| O=[N+]([O-])c1ccc(N2CCCCC2)nc1 | 29.2 (≈ 141 µM) |
| CC(C)c1ccc(NC(=O)COc2ccc(C3SCCS3)cc2)cc1 | 4.1 (≈ 11 µM) |
| Cc1ccccc1-c1nnc(SCC(=O)N2CCCC2)o1 | > 45.5 |
| O=C1CSC(c2ccccc2F)N1 (stereo not given) | > 29.6 |
| COc1ccc2ccc(O)c(CN3CC=C(c4ccccc4)CC3)c2c1 | 1.6 (≈ 4.63 µM) |

| SMILES | solubility kinetic [µg/mL] |
| --- | --- |
| Cc1cc(C)n2nc(C(=O)OCC(=O)N(CC(C)C)C3CCS(=O)(=O)C3)nc2n1 (stereo not given) | > 63.5 |
| CC1(C)CC(=O)C=C(Nc2ccc(Cl)c(Br)c2)C1 | 8.5 (≈ 25.9 µM) |
| CCC[C@H](N[C@@H](CCC)[C@H](O)c1ccccc1)[C@H](O)c1ccccc1 | 5.4 (≈ 15.8 µM) |
| O=C(NCCNC(=O)c1ccccc1O)c1ccccc1O | 32.3 (≈ 108 µM) |
| S=C(NC1CC1)SCc1ccco1 | 10.3 (≈ 48.3 µM) |
| Cc1c(NC(=O)COC(=O)c2ccc(Cl)nc2)c(=O)n(-c2ccccc2)n1C | > 60.1 |
| Cc1nc(C(F)(F)F)ccc1C(=O)Nc1ccc2ccccc2n1 | 3.3 (≈ 9.96 µM) |
| CSC1=N/C(=C/c2cccnc2)C(=O)N1Cc1ccc(Cl)cc1 | 1.1 (≈ 3.2 µM) |
| O=C(Nc1cccc(S(=O)(=O)N2CCCCC2)c1)C1CCCC1 | 41.2 (≈ 122 µM) |
| Cc1cccc(-c2noc(-c3ccno3)n2)c1 | 4.8 (≈ 21.1 µM) |
| CN(C)C(=O)CSc1nc2ccc(N3C(=O)c4ccccc4C3=O)cc2s1 | 3.1 (≈ 7.8 µM) |
| CCCCn1c(N)c(N(CC)C(=O)c2c(C)noc2C)c(=O)[nH]c1=O | > 52.4 |
| Nc1nc2ccccc2n1Cc1ccc(Cl)c(Cl)c1 | 33.1 (≈ 113 µM) |
| O=C(/C=C/c1ccccc1)OCC(=O)c1c[nH]c2ccccc12 | 3.9 (≈ 12.8 µM) |
| O=C1CCCN1CCCNC(=S)Nc1ccccc1Cl | 38.4 (≈ 123 µM) |
| O=[N+]([O-])c1cccnc1Oc1ccc(OCc2ccccc2)cc1 | < 0.3 |
| CC(C)CCNC(=O)c1cc2c(=O)n3ccccc3nc2s1 | 4.6 (≈ 14.6 µM) |
| COC1CCCCC1NCCc1ccccc1.O=C(O)C(=O)O (stereo not given) | > 48.5 |
| O=C(CCc1ccccc1)Nc1ccccc1C(=O)N1CCOCC1 | > 50.8 |
| N#CCCN(Cc1ccccc1)C(=O)c1nccnc1C(=O)O | > 46.5 |
| COc1ccc(CCNC(=O)NS(=O)(=O)c2ccc(C)cc2)cc1OC | > 56.8 |
| Nc1ccc(NC(=O)NC2CCCCC2)cc1[N+](=O)[O-] | 1.6 (≈ 5.75 µM) |
| COCCNC(=S)N(CCc1c(C)[nH]c2ccccc12)Cc1ccco1 | 27.9 (≈ 75.1 µM) |
| CCN(Cc1cccc(F)c1)C(=O)c1ccc2ccccc2n1 | > 46.3 |
